In US11198869B2, “Angelman syndrome antisense treatment” (The Texas A&M University System, priority 2017, dated 2021):

Test system: UBE3A-AS
Assay: UBE3A-AS RNA levels in CNS regions of Cynomolgus macaque after intrathecal lumbar puncture (SYBR Green qRT-PCR)
Type: in vivo, Cynomolgus macaque (Macaca fascicularis)
Settings: for UBE3A-AS RNA levels in CNS regions (in words) / Cohen's d, effect size on UBE3A-AS RNA levels in CNS: 10 mg single intrathecal bolus, 28 days; for Difference in UBE3A-AS RNA levels relative to vehicle: Cynomolgus macaque, single 10 mg intrathecal lumbar puncture, 28 days after treatment
Method: The ASO-4 and ASO-6 target regions are conserved across several non-human primate (NHP) species, thus enabling both safety and efficacy studies in a large animal model. To examine the efficacy of ASO-4.4.PS.L and ASO-6.1.PO-1.O in the central nervous system (CNS), ASOs were delivered to Cynomolgus macaques by intrathecal lumbar puncture. Animals were administered a single bolus injection of vehicle (0.9% saline, n=5), ASO-6.1.PO-1.O (10 mg, n=3), and ASO.4.4.PS.L (10 mg, n=3). Twenty-eight days following treatment, central nervous (CNS) tissues were collected and the steady state RNA levels of UBE3A-AS were measured.
NHP studies were performed at Northern Biomedical Research and Charles River Laboratories using protocols approved by the institutions respective Institutional Animal Care and Use Committees. Male and female Cynomolgus macaques (Macaca fascicularis) weighing 2-4 kg were anesthetized and single 1 mL dose of ASO or vehicle was administered via intrathecal lumbar puncture. The dosing solution was prepared by dissolution of lyophilized ASO in the vehicle control article (0.9% sodium chloride) and was filtered through a 0.2-μm filter. CNS and spinal cord samples were harvested, and the CNS was sectioned into 4-mm coronal slices. Tissue samples were flash frozen and stored at −80° C. until RNA isolation.
A 4 mm tissue punch was taken from each region of interest of which approximately half was used for RNA isolation. RNA isolation was performed using the Qiagen RNeasy Plus Mini kit (74136, Qiagen) with tissue disruption and lysis performed with 5 mm stainless steel beads in a TissueLyser II. The RNA was eluted in two volumes of 30 μl water, for a total elution volume of 60 μl. RNA was quantified using the Qubit with the RNA XR assay (Q33224, Thermo Fisher Scientific). cDNA was synthesized from 2 μg of input RNA using the High Capacity RNA-to-cDNA kit (4387406, Thermo Fisher Scientific) in a total reaction volume of 50 μl.
Cynomolgus macaque UBE3A-AS RNA levels were estimated using SYBR Green quantitative reverse-transcription PCR (qRT-PCR). Total reaction volume was 10 μl, including 2 μl of cDNA, 1× PowerUp SYBR Green Master mix (A25741, Thermo Fisher Scientific), and 500 nM of each primer (forward and reverse). Cycling conditions were 2 minutes at 50° C., 2 minutes at 95° C., and 40 cycles of 15 seconds at 95° C. and 1 minute at 60° C., with readings taken at the 60° C. step of every cycle. Reactions were run on a BIO-RAD T1000 CFX96 thermocycler, with internal control (PPIA, forward: […] (SEQ ID NO:503); reverse: […] (SEQ ID NO:504)) and target (UBE3A-AS, forward: […] (SEQ ID NO:505); reverse: […] (SEQ ID NO:506)) reactions performed separately. Data was retrieved and initial analysis was done with the BIORAD CFX Maestro software, with in depth statistical analyses performed with Excel and JMP.

[1] = Frontal Cortex (Corona radiata)

| Substance | UBE3A-AS RNA levels in CNS regions (in words) | Cohen's d, effect size on UBE3A-AS RNA levels in CNS (versus Vehicle) | Difference in UBE3A-AS RNA levels relative to vehicle (Caudate Nucleus) | Difference in UBE3A-AS RNA levels relative to vehicle (Cerebellum) | Difference in UBE3A-AS RNA levels relative to vehicle [1] | Difference in UBE3A-AS RNA levels relative to vehicle (Frontal cortex) | Difference in UBE3A-AS RNA levels relative to vehicle (Globus Pallidus) | Difference in UBE3A-AS RNA levels relative to vehicle (Hippocampus) | Difference in UBE3A-AS RNA levels relative to vehicle (Medulla) | Difference in UBE3A-AS RNA levels relative to vehicle (Motor Cortex) | Difference in UBE3A-AS RNA levels relative to vehicle (Oculomotor Nucleus) | Difference in UBE3A-AS RNA levels relative to vehicle (Pons) | Difference in UBE3A-AS RNA levels relative to vehicle (Putamen) | Difference in UBE3A-AS RNA levels relative to vehicle (Spinal Cord (Lumbar)) | Difference in UBE3A-AS RNA levels relative to vehicle (Temporal Lobe) | Difference in UBE3A-AS RNA levels relative to vehicle (Thalamus) | Cohen's d, effect size on UBE3A-AS RNA levels in CNS (versus ASO-6.1.PO-1.O) |
| --- | --- | --- | --- | --- | --- | --- | --- | --- | --- | --- | --- | --- | --- | --- | --- | --- | --- |
| C^O*U^O*G^O*G^O-t*g*t*c*a*a*c*a*a*g-C^O*C^O*A^O*A^o [ASO-6.1.PO-1.O] | reduced UBE3A-AS RNA levels in most CNS regions, with large effects observed in pons, oculomotor nucleus, and lumbar spinal cord | 0.3 | 0.10 | −0.11 | −0.08 | 0.01 | 0.10 | −0.19 | −0.24 | −0.19 | −0.37 | −0.27 | 0.07 | −0.32 | 0.13 | −0.02 |  |
| A^L*G^L*A^L*a*t*g*g*c*a*c*a*t*c*t*5mC^L*T^L*T^L*G^L (NNNATGGCACATCTNNNN; LNA gapmer, PS, 5-methylcytosine, chemistry not fully specified) [ASO-4.4.PS.L] | reduced UBE3A-AS RNA in most CNS regions, with large effects in temporal lobe, primary motor cortex, pons, medulla, hippocampus, globus pallidus, frontal cortex (corona radiata), prefrontal cortex, and lumbar spinal cord | 1.4 | −0.21 | −0.05 | −0.62 | −0.71 | −0.38 | −0.57 | −0.32 | −0.59 | −0.18 | −0.47 | −0.04 | −0.87 | −0.59 | −0.20 | 1.0 |
